Measurements: ChEMBL document CHEMBL5154681, “Small Amphiphilic Peptides: Activity Against a Broad Range of Drug-Resistant Bacteria and Structural Insight into Membranolytic Properties” (J Med Chem, 2022)
Converted amounts (≈) assume the structure as drawn. The source made the active and inactive calls. The calls are words filed in the database; no cut-off is given here. Square brackets hold non-standard residues; d marks the D form. Peptide text beside a SMILES is read from it. Dip = N[C@H](C(=O)O)C(c1ccccc1)c1ccccc1; 2Nal = N[C@@H](Cc1ccc2ccccc2c1)C(=O)O

Key:
Escherichia coli [1] = assay: Bactericidal activity against Escherichia coli ATCC BAA-2452 assessed as reduction of bacterial growth at MIC by counting formed colonies; assay type: functional, organism-based; conditions: time <= 4.0 hrs, TDE = time-dependent effect
[2] = Selectivity ratio of MIC for antibacterial activity against Pseudomonas aeruginosa ATCC 10145 to MIC for antibacterial activity against imipenem-resistant Pseudomonas aeruginosa ATCC BAA-1744; assay type: functional
Cell membrane [3] = assay: Membrano-lytic effect in cytoplasmic membrane of Escherichia coli ATCC BAA-2452 assessed as disruption by measuring propidium iodide fluorescence at 4 times MIC incubated for 1 hr by FACscan flow cytometer analysis
[4] = Cytotoxicity against human MRC-5 assessed as cell viability at 150 ug/ml incubated for 24 hrs by microplate spectrophotometer analysis method relative to control; assay type: toxicity, cell-based, MRC5; conditions: MRC-5 cells, at 150 µg/mL, read-out: Activity
Escherichia coli [5] = assay: Antibacterial activity against Escherichia coli ATCC BAA-2452 assessed as loss of membrane fluid at 4 times of MIC incubated for 30 mins by FE-SEM analysis; assay type: functional, organism-based
Enterococcus faecalis = assay: Antibacterial activity against Enterococcus faecalis ATCC 29212 incubated for 24 hrs by microtiter plate method; assay type: functional
Cell membrane [6] = assay: Membrano-lytic effect in cytoplasmic membrane of methicillin resistant Staphylococcus aureus ATCC BAA-1556 assessed as disruption by measuring propidium iodide fluorescence incubated for 1 hr by FACscan flow cytometer analysis; conditions: DDE = dose-dependent effect
Pseudomonas aeruginosa [7] = assay: Antibacterial activity against Pseudomonas aeruginosa ATCC 10145 incubated for 24 hrs by microtiter plate method; assay type: functional
HepaRG [8] = assay: Cytotoxicity against human HPRGC10 assessed as cell viability at 50 ug/ml incubated for 24 hrs by microplate spectrophotometer analysis method relative to control; assay type: functional; conditions: read-out: Activity
Staphylococcus aureus [9] = assay: Antibacterial activity against methicillin resistant Staphylococcus aureus ATCC BAA-1556 after 24 hrs in presence of 6 mM of NH4Cl by microtiter plate method; assay type: functional
Escherichia coli [10] = assay: Antibacterial activity against Escherichia coli ATCC 25922 after 24 hrs in presence of 150 mM NaCl by microtiter plate method; assay type: functional
Staphylococcus aureus [11] = assay: Antibacterial activity against methicillin resistant Staphylococcus aureus ATCC BAA-1556 after 24 hrs in presence of 1 mM of by microtiter plate method; assay type: functional
Staphylococcus aureus [12] = assay: Antibacterial activity against methicillin-resistant Staphylococcus aureus ATCC BAA-1556 assessed as membrane atrophy at 4 times of MIC incubated for 30 mins by FE-SEM analysis; assay type: functional, organism-based
Staphylococcus aureus [13] = assay: Antibacterial activity against methicillin-resistant Staphylococcus aureus ATCC BAA-1556 assessed as loss of membrane fluid at 4 times of MIC incubated for 30 mins by FE-SEM analysis; assay type: functional, organism-based
[14] = Hemolytic activity in human RBC assessed as hemolysis incubated for 2 hrs by spectrophotometer analysis; assay type: toxicity, cell-based, Erythrocyte; conditions: human red blood cells (erythrocytes)
Staphylococcus aureus [15] = assay: Bactericidal activity against methicillin resistant Staphylococcus aureus ATCC BAA-1556 assessed as time required for complete reduction of bacterial growth at 4 times MIC by counting formed colonies; assay type: functional
Escherichia coli [16] = assay: Antibacterial activity against Escherichia coli ATCC 25922 after 24 hrs in presence of 1 mM of MgCl2 at by microtiter plate method; assay type: functional
Staphylococcus aureus [17] = assay: Antibacterial activity against methicillin resistant Staphylococcus aureus ATCC BAA-1556 after 24 hrs in presence of fetal bovine serum by microtiter plate method; assay type: functional
Cell membrane [18] = assay: Membrano-lytic effect in cytoplasmic membrane of Escherichia coli ATCC BAA-2452 assessed as disruption by measuring propidium iodide fluorescence at MIC incubated for 1 hr by FACscan flow cytometer analysis
Pseudomonas aeruginosa [19] = assay: Antibacterial activity against Pseudomonas aeruginosa ATCC 27883 incubated for 24 hrs by microtiter plate method; assay type: functional; conditions: Pseudomonas aeruginosa, ATCC 27883, read-out: MIC
[20] = Cytotoxicity against HEK293 assessed as cell viability at 150 ug/ml incubated for 24 hrs by microplate spectrophotometer analysis method relative to control; assay type: toxicity, cell-based; conditions: human, HEK293 cells, at 150 µg/mL, read-out: Activity
Escherichia coli [21] = assay: Antibacterial activity against Escherichia coli ATCC 25922 incubated for 24 hrs; assay type: functional
[22] = Proteolytic stability in human plasma at 100 uM incubated for 24 hrs by Q-TOF LC/MS analysis relative to control; assay type: ADME, cell-free; conditions: read-out: Stability
Escherichia coli [23] = assay: Antibacterial activity against Escherichia coli ATCC 25922 after 24 hrs in presence of 4.5 mM of KCl at by microtiter plate method; assay type: functional
HepaRG [24] = assay: Cytotoxicity against human HPRGC10 assessed as cell viability at 150 ug/ml incubated for 24 hrs by microplate spectrophotometer analysis method relative to control; assay type: functional; conditions: read-out: Activity
[25] = Selectivity ratio of MIC for antibacterial activity against Klebsiella pneumoniae ATCC 13883 to MIC for antibacterial activity against carbapenem-resistant Klebsiella pneumoniae ATCC BAA-2470; assay type: functional
Enterococcus faecium = assay: Antibacterial activity against Enterococcus faecium ATCC 27270 incubated for 24 hrs by microtiter plate method; assay type: functional
Pseudomonas aeruginosa [26] = assay: Antibacterial activity against imipenem resistant Pseudomonas aeruginosa ATCC BAA-1744 incubated for 24 hrs by microtiter plate method; assay type: functional
Staphylococcus aureus [27] = assay: Bactericidal activity against methicillin resistant Staphylococcus aureus ATCC BAA-1556 assessed as reduction of bacterial growth at MIC by counting formed colonies; assay type: functional, organism-based; conditions: time <= 4.0 hrs, TDE = time-dependent effect
[28] = Cytotoxicity against human MRC5 assessed as cell viability at 50 ug/ml incubated for 24 hrs by microplate spectrophotometer analysis method relative to control; assay type: toxicity, cell-based; conditions: MRC5 cells, at 50 µg/mL, read-out: Activity
Escherichia coli [29] = assay: Antibacterial activity against Escherichia coli ATCC BAA-2452 assessed as membrane atrophy at 4 times of MIC incubated for 30 mins by FE-SEM analysis; assay type: functional, organism-based
Staphylococcus aureus [30] = assay: Antibacterial activity against methicillin resistant Staphylococcus aureus ATCC BAA-1556 after 24 hrs in presence of 150 mM of NaCl by microtiter plate method; assay type: functional
Lipid bilayer = assay: Membrano-lytic effect in mammalian membrane mimic DOPC/cholesterol (10:1) large unilamellar vesicles assessed as calcein leakage measured at 50 microg/ml measured upto 100 mins for every 10 mins by multimode microplate reader assay; assay type: cell membranes; conditions: dose 50.0 µg/ml
Staphylococcus aureus [31] = assay: Antibacterial activity against methicillin resistant Staphylococcus aureus ATCC BAA-1556 incubated for 24 hrs; assay type: functional
Streptococcus pneumoniae = assay: Antibacterial activity against multidrug resistant […] ATCC 700677 incubated for 24 hrs by microtiter plate method; assay type: functional
Staphylococcus aureus [32] = assay: Bactericidal activity against methicillin resistant Staphylococcus aureus ATCC BAA-1556 assessed as time required for complete reduction of bacterial growth at MIC by counting formed colonies; assay type: functional
Staphylococcus aureus [33] = assay: Antibacterial activity against methicillin resistant Staphylococcus aureus ATCC BAA-1556 after 24 hrs in presence of 2 mM of CaCl2 by microtiter plate method; assay type: functional
Acinetobacter baumannii = assay: Antibacterial activity against ciprofloxacin resistance Acinetobacter baumannii ATCC BAA1605 incubated for 24 hrs by microtiter plate method; assay type: functional
Escherichia coli [34] = assay: Antibacterial activity against Escherichia coli NDM-1-resistant ATCC BAA-2452 incubated for 24 hrs by microtiter plate method; assay type: functional

Row | SMILES | Activity (Escherichia coli [1]) | Ratio [2] | Activity (Cell membrane [3]) [%] | viability at 24 h, 150 ug/ml [4] [%] | Activity (Escherichia coli [5]) | MIC (Enterococcus faecalis) [µg/mL] | Activity (Cell membrane [6]) | MIC (Pseudomonas aeruginosa [7]) [µg/mL] | viability at 50 µg/mL (HepaRG [8]) [%] | MIC (Staphylococcus aureus [9]) [µg/mL] | MIC (Escherichia coli [10]) [µg/mL] | MIC (Staphylococcus aureus [11]) [µg/mL] | Activity (Staphylococcus aureus [12]) | Activity (Staphylococcus aureus [13]) | HC50 at 2 h [14] [µg/mL] | Activity (Staphylococcus aureus [15]) | MIC (Escherichia coli [16]) [µg/mL] | MIC (Staphylococcus aureus [17]) [µg/mL] | Activity (Cell membrane [18]) [%] | MIC (Pseudomonas aeruginosa [19]) [µg/mL] | other results
1 | N=C(N)NCCC[C@@H]1NC(=O)[C@H](CCCNC(=N)N)NC(=O)[C@H](CCCNC(=N)N)NC(=O)[C@H](Cc2ccc3ccccc3c2)NC(=O)[C@H](Cc2ccc3ccccc3c2)NC(=O)[C@H](Cc2ccc3ccccc3c2)NC(=O)[C@H](CCCNC(=N)N)NC1=O (cyclo(RRRR[2Nal][2Nal][2Nal])) | Tde | 2 | 88 | 36 | Active | 3.1 (≈ 2.55 µM) | Dde | 25 (≈ 20.6 µM) | 93 | 3.1 | 25 | 3.1 | Active | Active | 80 | Active | 25 | 6.2 | 50 | 12.5 (≈ 10.3 µM) | viability at 24 h, 150 ug/ml [20]: 58%; MBC (Escherichia coli [21]): 100 µg/mL (≈ 82.2 µM); remaining at 24 h, 100 µM [22]: 60%; MIC (Escherichia coli [23]): 25 µg/mL; viability at 150 µg/mL (HepaRG [24]): 61%; Ratio [25]: 2; MIC (Enterococcus faecium): 3.1 µg/mL (≈ 2.55 µM); MIC (Pseudomonas aeruginosa [26]): 12.5 µg/mL (≈ 10.3 µM); Activity (Staphylococcus aureus [27]): Tde; viability at 24 h, 50 ug/ml [28]: 93%; Activity (Escherichia coli [29]): Active; MIC (Staphylococcus aureus [30]): 3.1 µg/mL; Activity (Lipid bilayer): 14%; MBC (Staphylococcus aureus [31]): 6.2 µg/mL (≈ 5.1 µM); MIC (Streptococcus pneumoniae): 12.5 µg/mL (≈ 10.3 µM); Activity (Staphylococcus aureus [32]): Active; MIC (Staphylococcus aureus [33]): 3.1 µg/mL; MIC (Acinetobacter baumannii): 12.5 µg/mL (≈ 10.3 µM); MIC (Escherichia coli [34]): 12.5 µg/mL (≈ 10.3 µM)
2 | N=C(N)NCCC[C@@H]1NC(=O)[C@H](CCCNC(=N)N)NC(=O)[C@H](CCCNC(=N)N)NC(=O)[C@H](C(c2ccccc2)c2ccccc2)NC(=O)[C@H](C(c2ccccc2)c2ccccc2)NC(=O)[C@H](C(c2ccccc2)c2ccccc2)NC(=O)[C@H](CCCNC(=N)N)NC1=O (cyclo(RRRR[Dip][Dip][Dip])) | Tde | 2 | 78 | 36 | Active | 3.1 (≈ 2.39 µM) | Dde | 25 (≈ 19.3 µM) | 93 | 3.1 | 12.5 | 6.2 | Active | Active | 70 | Active | 12.5 | 6.2 | 50 | 12.5 (≈ 9.66 µM) | viability at 24 h, 150 ug/ml [20]: 58%; MBC (Escherichia coli [21]): 25 µg/mL (≈ 19.3 µM); remaining at 24 h, 100 µM [22]: 65%; MIC (Escherichia coli [23]): 12.5 µg/mL; viability at 150 µg/mL (HepaRG [24]): 61%; Ratio [25]: 2; MIC (Enterococcus faecium): 3.1 µg/mL (≈ 2.39 µM); MIC (Pseudomonas aeruginosa [26]): 12.5 µg/mL (≈ 9.66 µM); Activity (Staphylococcus aureus [27]): Tde; viability at 24 h, 50 ug/ml [28]: 93%; Activity (Escherichia coli [29]): Active; MIC (Staphylococcus aureus [30]): 3.1 µg/mL; Activity (Lipid bilayer): 18%; MBC (Staphylococcus aureus [31]): 6.2 µg/mL (≈ 4.79 µM); MIC (Streptococcus pneumoniae): 25 µg/mL (≈ 19.3 µM); Activity (Staphylococcus aureus [32]): Active; MIC (Staphylococcus aureus [33]): 3.1 µg/mL; MIC (Acinetobacter baumannii): 12.5 µg/mL (≈ 9.66 µM); MIC (Escherichia coli [34]): 12.5 µg/mL (≈ 9.66 µM)
